The structures appear in SMILES notation. ± gives the expanded uncertainty stated by the source.

One data set is described as follows: activity coefficient (dimensionless); of the first substance listed, at infinite dilution; xn = mol fraction of the nth substance listed. To be noted: 318.15 K; 101 kPa; Liquid; Chromatography; x1 = 0.
`CCCC(=O)OC` [methyl butanoate] + COCC[N+]1(C)CCCC1.O=S(=O)([N-]S(=O)(=O)C(F)(F)F)C(F)(F)F: the activity coefficient stood at 1.29 ± 0.08.
On the same count and under the same terms, next, `C=Cc1ccccc1` [styrene] + COCC[N+]1(C)CCCC1.O=S(=O)([N-]S(=O)(=O)C(F)(F)F)C(F)(F)F: 1.29 ± 0.08.
Consider `CCC(C)CC` [3-methylpentane] + COCC[N+]1(C)CCCC1.O=S(=O)([N-]S(=O)(=O)C(F)(F)F)C(F)(F)F, for which the activity coefficient was 16.6 ± 1.1.
Still for that read-out and setting: with `c1ccccc1` [benzene] + COCC[N+]1(C)CCCC1.O=S(=O)([N-]S(=O)(=O)C(F)(F)F)C(F)(F)F the figure was 1.03 ± 0.06; with `C1CCCC1` [cyclopentane] + COCC[N+]1(C)CCCC1.O=S(=O)([N-]S(=O)(=O)C(F)(F)F)C(F)(F)F, 7.52 ± 0.51; with `C=CCCCC` [hex-1-ene] + COCC[N+]1(C)CCCC1.O=S(=O)([N-]S(=O)(=O)C(F)(F)F)C(F)(F)F, 9.74 ± 0.66.
The same measure, in the same setting: next, `CCOCC` [diethyl ether] + COCC[N+]1(C)CCCC1.O=S(=O)([N-]S(=O)(=O)C(F)(F)F)C(F)(F)F: 2.79 ± 0.19.
With `Cc1ccccc1C` [1,2-dimethylbenzene] + COCC[N+]1(C)CCCC1.O=S(=O)([N-]S(=O)(=O)C(F)(F)F)C(F)(F)F, the activity coefficient was determined as 1.94 ± 0.13.
The same measure, in the same setting: with `C#CCCCCC` [1-heptyne] + COCC[N+]1(C)CCCC1.O=S(=O)([N-]S(=O)(=O)C(F)(F)F)C(F)(F)F the figure was 4.75 ± 0.32; with `CCCCCCCCCC` [decane] + COCC[N+]1(C)CCCC1.O=S(=O)([N-]S(=O)(=O)C(F)(F)F)C(F)(F)F, 83.1 ± 5.7.

The same data set, now with this note: 328.15 K; 101 kPa; Liquid; Chromatography; x1 = 0.
On to `CCCC(=O)OC` [methyl butanoate] + COCC[N+]1(C)CCCC1.O=S(=O)([N-]S(=O)(=O)C(F)(F)F)C(F)(F)F, for which the activity coefficient came out at 1.31 ± 0.09.
On the same count and under the same terms, with `C=Cc1ccccc1` [styrene] + COCC[N+]1(C)CCCC1.O=S(=O)([N-]S(=O)(=O)C(F)(F)F)C(F)(F)F the figure was 1.32 ± 0.09; with `CCC(C)CC` [3-methylpentane] + COCC[N+]1(C)CCCC1.O=S(=O)([N-]S(=O)(=O)C(F)(F)F)C(F)(F)F, 15.6 ± 1.1; with `c1ccccc1` [benzene] + COCC[N+]1(C)CCCC1.O=S(=O)([N-]S(=O)(=O)C(F)(F)F)C(F)(F)F, 1.04 ± 0.07.
On the same count and under the same terms, next, `C1CCCC1` [cyclopentane] + COCC[N+]1(C)CCCC1.O=S(=O)([N-]S(=O)(=O)C(F)(F)F)C(F)(F)F: 7.19 ± 0.49.
The same measure, in the same setting: with `C=CCCCC` [hex-1-ene] + COCC[N+]1(C)CCCC1.O=S(=O)([N-]S(=O)(=O)C(F)(F)F)C(F)(F)F the figure was 9.34 ± 0.64; with `CCOCC` [diethyl ether] + COCC[N+]1(C)CCCC1.O=S(=O)([N-]S(=O)(=O)C(F)(F)F)C(F)(F)F, 2.79 ± 0.19.
With `Cc1ccccc1C` [1,2-dimethylbenzene] + COCC[N+]1(C)CCCC1.O=S(=O)([N-]S(=O)(=O)C(F)(F)F)C(F)(F)F, the activity coefficient turned out to be 1.96 ± 0.13.
As to `C#CCCCCC` [1-heptyne] + COCC[N+]1(C)CCCC1.O=S(=O)([N-]S(=O)(=O)C(F)(F)F)C(F)(F)F, the activity coefficient came out at 4.71 ± 0.32.
The same measure, in the same setting: with `CCCCCCCCCC` [decane] + COCC[N+]1(C)CCCC1.O=S(=O)([N-]S(=O)(=O)C(F)(F)F)C(F)(F)F the figure was 75.5 ± 5.2.

Still in this data set, the particulars now being: 338.15 K; 101 kPa; Liquid; Chromatography; x1 = 0.
Consider `CCCC(=O)OC` [methyl butanoate] + COCC[N+]1(C)CCCC1.O=S(=O)([N-]S(=O)(=O)C(F)(F)F)C(F)(F)F, for which the activity coefficient came to 1.33 ± 0.09.
The same measure, in the same setting: next, `C=Cc1ccccc1` [styrene] + COCC[N+]1(C)CCCC1.O=S(=O)([N-]S(=O)(=O)C(F)(F)F)C(F)(F)F: 1.33 ± 0.09.
`CCC(C)CC` [3-methylpentane] + COCC[N+]1(C)CCCC1.O=S(=O)([N-]S(=O)(=O)C(F)(F)F)C(F)(F)F: the activity coefficient was determined as 14.8 ± 1.
On the same count and under the same terms, with `c1ccccc1` [benzene] + COCC[N+]1(C)CCCC1.O=S(=O)([N-]S(=O)(=O)C(F)(F)F)C(F)(F)F the figure was 1.06 ± 0.07; with `C1CCCC1` [cyclopentane] + COCC[N+]1(C)CCCC1.O=S(=O)([N-]S(=O)(=O)C(F)(F)F)C(F)(F)F, 6.85 ± 0.47.
The same measure, in the same setting: with `C=CCCCC` [hex-1-ene] + COCC[N+]1(C)CCCC1.O=S(=O)([N-]S(=O)(=O)C(F)(F)F)C(F)(F)F the figure was 8.92 ± 0.61.
On the same count and under the same terms, next, `CCOCC` [diethyl ether] + COCC[N+]1(C)CCCC1.O=S(=O)([N-]S(=O)(=O)C(F)(F)F)C(F)(F)F: 2.78 ± 0.19; `Cc1ccccc1C` [1,2-dimethylbenzene] + COCC[N+]1(C)CCCC1.O=S(=O)([N-]S(=O)(=O)C(F)(F)F)C(F)(F)F: 1.97 ± 0.13.
As to `C#CCCCCC` [1-heptyne] + COCC[N+]1(C)CCCC1.O=S(=O)([N-]S(=O)(=O)C(F)(F)F)C(F)(F)F, the activity coefficient worked out at 4.66 ± 0.32.
In the case of `CCCCCCCCCC` [decane] + COCC[N+]1(C)CCCC1.O=S(=O)([N-]S(=O)(=O)C(F)(F)F)C(F)(F)F, the activity coefficient worked out at 68.1 ± 4.7.

The same data set, now with this note: 348.15 K; 101 kPa; Liquid; Chromatography; x1 = 0.
`CCCC(=O)OC` [methyl butanoate] + COCC[N+]1(C)CCCC1.O=S(=O)([N-]S(=O)(=O)C(F)(F)F)C(F)(F)F: the activity coefficient was determined as 1.35 ± 0.09.
On the same count and under the same terms, next, `C=Cc1ccccc1` [styrene] + COCC[N+]1(C)CCCC1.O=S(=O)([N-]S(=O)(=O)C(F)(F)F)C(F)(F)F: 1.36 ± 0.09; `CCC(C)CC` [3-methylpentane] + COCC[N+]1(C)CCCC1.O=S(=O)([N-]S(=O)(=O)C(F)(F)F)C(F)(F)F: 14.1 ± 1; `c1ccccc1` [benzene] + COCC[N+]1(C)CCCC1.O=S(=O)([N-]S(=O)(=O)C(F)(F)F)C(F)(F)F: 1.07 ± 0.07.
Still for that read-out and setting: with `C1CCCC1` [cyclopentane] + COCC[N+]1(C)CCCC1.O=S(=O)([N-]S(=O)(=O)C(F)(F)F)C(F)(F)F the figure was 6.54 ± 0.45; with `C=CCCCC` [hex-1-ene] + COCC[N+]1(C)CCCC1.O=S(=O)([N-]S(=O)(=O)C(F)(F)F)C(F)(F)F, 8.61 ± 0.59; with `CCOCC` [diethyl ether] + COCC[N+]1(C)CCCC1.O=S(=O)([N-]S(=O)(=O)C(F)(F)F)C(F)(F)F, 2.78 ± 0.19.
On the same count and under the same terms, next, `Cc1ccccc1C` [1,2-dimethylbenzene] + COCC[N+]1(C)CCCC1.O=S(=O)([N-]S(=O)(=O)C(F)(F)F)C(F)(F)F: 1.98 ± 0.13.
Regarding `C#CCCCCC` [1-heptyne] + COCC[N+]1(C)CCCC1.O=S(=O)([N-]S(=O)(=O)C(F)(F)F)C(F)(F)F, the activity coefficient stood at 4.62 ± 0.31.
The same measure, in the same setting: with `CCCCCCCCCC` [decane] + COCC[N+]1(C)CCCC1.O=S(=O)([N-]S(=O)(=O)C(F)(F)F)C(F)(F)F the figure was 61.8 ± 4.2.

Still in this data set, the particulars now being: 358.15 K; 101 kPa; Liquid; Chromatography; x1 = 0.
On to `CCCC(=O)OC` [methyl butanoate] + COCC[N+]1(C)CCCC1.O=S(=O)([N-]S(=O)(=O)C(F)(F)F)C(F)(F)F, for which the activity coefficient is 1.36 ± 0.09.
The same measure, in the same setting: next, `C=Cc1ccccc1` [styrene] + COCC[N+]1(C)CCCC1.O=S(=O)([N-]S(=O)(=O)C(F)(F)F)C(F)(F)F: 1.37 ± 0.09; `CCC(C)CC` [3-methylpentane] + COCC[N+]1(C)CCCC1.O=S(=O)([N-]S(=O)(=O)C(F)(F)F)C(F)(F)F: 13.5 ± 0.9; `c1ccccc1` [benzene] + COCC[N+]1(C)CCCC1.O=S(=O)([N-]S(=O)(=O)C(F)(F)F)C(F)(F)F: 1.08 ± 0.07.
On the same count and under the same terms, next, `C1CCCC1` [cyclopentane] + COCC[N+]1(C)CCCC1.O=S(=O)([N-]S(=O)(=O)C(F)(F)F)C(F)(F)F: 6.26 ± 0.43.
On the same count and under the same terms, with `C=CCCCC` [hex-1-ene] + COCC[N+]1(C)CCCC1.O=S(=O)([N-]S(=O)(=O)C(F)(F)F)C(F)(F)F the figure was 8.24 ± 0.56.
With `CCOCC` [diethyl ether] + COCC[N+]1(C)CCCC1.O=S(=O)([N-]S(=O)(=O)C(F)(F)F)C(F)(F)F, the activity coefficient came to 2.78 ± 0.19.
Still for that read-out and setting: with `Cc1ccccc1C` [1,2-dimethylbenzene] + COCC[N+]1(C)CCCC1.O=S(=O)([N-]S(=O)(=O)C(F)(F)F)C(F)(F)F the figure was 1.99 ± 0.14.
Still for that read-out and setting: next, `C#CCCCCC` [1-heptyne] + COCC[N+]1(C)CCCC1.O=S(=O)([N-]S(=O)(=O)C(F)(F)F)C(F)(F)F: 4.58 ± 0.31; `CCCCCCCCCC` [decane] + COCC[N+]1(C)CCCC1.O=S(=O)([N-]S(=O)(=O)C(F)(F)F)C(F)(F)F: 56.1 ± 3.8.

The data set is the same for the next values; noted with them: 368.15 K; 101 kPa; Liquid; Chromatography; x1 = 0.
With `CCCC(=O)OC` [methyl butanoate] + COCC[N+]1(C)CCCC1.O=S(=O)([N-]S(=O)(=O)C(F)(F)F)C(F)(F)F, the activity coefficient amounted to 1.38 ± 0.09.
Regarding `C=Cc1ccccc1` [styrene] + COCC[N+]1(C)CCCC1.O=S(=O)([N-]S(=O)(=O)C(F)(F)F)C(F)(F)F, the activity coefficient turned out to be 1.39 ± 0.09.
Still for that read-out and setting: next, `CCC(C)CC` [3-methylpentane] + COCC[N+]1(C)CCCC1.O=S(=O)([N-]S(=O)(=O)C(F)(F)F)C(F)(F)F: 12.8 ± 0.9.
Same read-out and setting: with `c1ccccc1` [benzene] + COCC[N+]1(C)CCCC1.O=S(=O)([N-]S(=O)(=O)C(F)(F)F)C(F)(F)F the figure was 1.09 ± 0.07; with `C1CCCC1` [cyclopentane] + COCC[N+]1(C)CCCC1.O=S(=O)([N-]S(=O)(=O)C(F)(F)F)C(F)(F)F, 5.98 ± 0.41.
On the same count and under the same terms, next, `C=CCCCC` [hex-1-ene] + COCC[N+]1(C)CCCC1.O=S(=O)([N-]S(=O)(=O)C(F)(F)F)C(F)(F)F: 7.96 ± 0.54.
Consider `CCOCC` [diethyl ether] + COCC[N+]1(C)CCCC1.O=S(=O)([N-]S(=O)(=O)C(F)(F)F)C(F)(F)F, for which the activity coefficient was 2.78 ± 0.19.
Regarding `Cc1ccccc1C` [1,2-dimethylbenzene] + COCC[N+]1(C)CCCC1.O=S(=O)([N-]S(=O)(=O)C(F)(F)F)C(F)(F)F, the activity coefficient was found to be 2 ± 0.14.
As to `C#CCCCCC` [1-heptyne] + COCC[N+]1(C)CCCC1.O=S(=O)([N-]S(=O)(=O)C(F)(F)F)C(F)(F)F, the activity coefficient is 4.55 ± 0.31.
The same measure, in the same setting: with `CCCCCCCCCC` [decane] + COCC[N+]1(C)CCCC1.O=S(=O)([N-]S(=O)(=O)C(F)(F)F)C(F)(F)F the figure was 51.3 ± 3.5.

(Values after the NIST ThermoML archive (doi:10.1016/j.jct.2012.03.015).)
